Consider four compounds from PMC9258070, “Establishment and evaluation of glucose-modified nanocomposite liposomes for the treatment of cerebral malaria” (Journal of Nanobiotechnology, 2022).

The nature of data set [1]: Brain biodistribution study (LC-MS). The note with it: C57BL/6, mouse. The method, then:
(§1) The C57BL/6 mouse cerebral malaria model was established according to the method of “In vivo antimalarial experiment”. The model mice were randomly divided into the intranasal administration group (na-ATS/TMP@lipoBX) and tail vein injection group (iv-ATS/TMP@lipoBX). The dosage of each administration group was artesunate (ATS) 15.6 mg/kg and tetramethylpyrazine hydrochloride (TMP) 20.8 mg/kg.
Mice were euthanized and the brains were dissected. The brain samples were homogenized by adding 4 times their weight of physiological saline to prepare a tissue homogenate. The brain homogenates were processed according to the processing method for the plasma sample, and LC–MS quantitative analysis was carried out.
(§2) LC conditions were as follows: column: Waters UPLC BEH C18 column (1.7 μm, 2.1 mm × 50 mm); mobile phase: water (0.1% formic acid and 5 mM ammonium formate)-acetonitrile (85:15, v/v), flow rate: 0.3 ml/min; column temperature: 35 ℃. Mass spectrum conditions were as follows: electric spray ion source (ESI); multiple response monitoring (MRM) mode; positive ion scanning mode; air curtain pressure (N2) was 40 psi, impact air pressure (N2) was 9 psi, atomization gas pressure (N2) was 55 psi, auxiliary gas pressure (N2) was 55 psi; spray voltage was 5500 V; atomization temperature was 550 ℃.

The nature of data set [2]: Pharmacokinetic study in plasma (LC-MS). The note with it: C57BL/6, mouse. The method, then: as §1
Blood samples were collected at 5 min, 10 min, 15 min, 30 min, 45 min, 1 h, 2 h, 4 h, 8 h, 12 h and 24 h after administration. These samples were immediately placed in a tube containing heparin sodium (1000 U/mL). Plasma samples were obtained after centrifugation at 4000 rpm for 10 min and an esterase inhibitor was added to the samples. Subsequently, methanol was added to the plasma in the ratio of 1:2 (plasma-methanol) and centrifuged at 14,000 rpm for 5 min to obtain liquid supernatant for quantitative analysis by LC–MS.
as §2

The nature of data set [3]: Solubility of the conjugate (description). The format is physicochemical.

Where a name gives a salt, the structure may show the parent alone.

One may read the Tmax as the time from dosing to the highest level. Consider `Cc1nc(C)c(C)nc1C` [TMP, tetramethylpyrazine hydrochloride], for which the bioavailability in data set [1] (in vivo) was roughly 183%; in data set [2] (in vivo), roughly 97%. Moreover, the Tmax in data set [1] (in vivo, inhaled or intranasal) is 4.98 min; in data set [1] (in vivo, iv), 4.98 min; in data set [2] (in vivo, inhaled or intranasal), 4.98 min; in data set [2] (in vivo, iv), 6.24 ± 2.52 min.
Turning to `CC(C)CCCC(C)C1CCC2C3CC=C4CC(OC(=O)CCCCCCCCCCOc5ccc(OC6OC(CO)C(O)C(O)C6O)cc5)CCC4(C)C3CCC12C` (stereo not shown) [cholesterol-undecanoate-glucose conjugate], the solubility result in data set [3] was “soluble in ethanol and tetrahydrofuran”.
Turning to `C[C@H]1[C@@H](O)O[C@@H]2O[C@@]3(C)CC[C@H]4[C@H](C)CC[C@@H]1[C@@]24OO3` [DHA, dihydroartemisinin], the time of peak concentration (Tmax) in data set [1] (brain, inhaled or intranasal) was determined as 23.8 ± 17 min; in data set [1] (brain, iv) it was 7.5 ± 2.88 min. For the same compound, the bioavailability in data set [1] (brain, other: intranasal) was roughly 449%.
In the case of `C[C@H]1[C@H](OC(=O)CCC(=O)O)O[C@@H]2O[C@@]3(C)CC[C@H]4[C@H](C)CC[C@@H]1[C@@]24OO3` [ATS, artesunate], the Tmax in data set [1] (brain, inhaled or intranasal) was found to be 210 ± 60 min; in data set [1] (brain, iv), 495 ± 311 min; in data set [2] (plasma, inhaled or intranasal), 144 ± 225 min; in data set [2] (plasma, iv), 17.5 ± 18.5 min. Moreover, the bioavailability in data set [1] (brain, other: intranasal) was roughly 415%; in data set [2] (in vivo), roughly 91%.
